The values that follow come from ChEMBL document CHEMBL5226278, “Pharmacological approaches for targeting cystic fibrosis nonsense mutations” (2020).

Molecules are shown by their SMILES.

A short description of the assay: Restoration of CFTR chloride channel activity in human HBE cells expressing wild type CFTR assessed as increase in channel function. It counts as functional.

`C[C@H](N)[C@H]1O[C@@H](O[C@@H]2[C@@H](O)[C@H](N)C[C@H](N)[C@H]2O[C@H]2O[C@H]([C@@H](C)O)[C@@H](O)[C@H](O)[C@H]2N)[C@H](O)[C@@H]1O`: the Activity is reported as 7%.
